Results taken from paper PMC7555839 (Frontiers in Microbiology, 2020).
Values after ≈ are worked out from the molar mass of the structure shown. Read-outs that look alike come from different tables or passages of the source.

How the values were obtained:
[1] = system: Salmonella typhimurium TA100; settings: Positive control
[2] = system: Salmonella typhimurium TA1535; settings: Positive control
[3] = system: Salmonella typhimurium TA98; settings: Positive control
[4] = system: Escherichia coli mutant [wp2 (pKM101)]; settings: Positive control, + S9, 4 µg/well
[5] = system: Salmonella typhimurium TA1537; assay: Ames test; settings: Positive control
[6] = system: Staphylococcus aureus USA300 JE2; assay: Broth microdilution (MIC/MBC); assay type: cell-based; settings: USA300, broth microdilution, starter concentration of the tolerance assay, read-out: MIC value for USA300
[7] = system: fusidic acid-resistant S. aureus isolates; set-up: method as in Castanheira et al., 2010; settings: ref Castanheira et al., 2010; cited from earlier work
plasma proteins = settings: cited from earlier work
MRSA strain 43484 = assay: Mouse skin (wound) infection model, topical treatment; assay type: in vivo, Staphylococcus aureus; settings: 2%, 50 μl topical twice daily for 3 days, female mice, skin biopsies day 4
Experimental: To study the effect of topical treatment with JBC 1847 against MRSA strain 43484, a mouse skin infection model was established. Initially, female mice (18–22 g) were orally treated with 45 μl nurofen (20 mg ibuprofen/ml) and anaesthetized with 0.15 ml s.c. of Zoletil mix. The fur was removed from an area of 6 cm^2 and a part of epidermis was subsequently scraped off to obtain a 1 cm^2 superficial skin lesion. The mice were inoculated with 10 μl of a saline solution containing approximately 10^7 CFU. The day after inoculation, topical treatment with 50 μl test compound was initiated and performed twice daily for a 3-day period. Fucidic acid was included as a positive control, and vehicle treatment was included as a negative control. Through the entire study, the behavior and clinical signs of the mice were carefully observed. Mice were killed the day after last treatment, and skin biopsies from the wounded area were collected. The skin samples were homogenized using a Dispomixer and serially diluted in saline/Triton X. To determine the bacterial concentration, 20 μl spots were transferred to MRSA Brilliance agar plates (Oxoid, Thermo Scientific, Roskilde, Denmark) and incubated 20–48 h at 35°C.
Data were statically analyzed and visualized using RStudio v3.6.3 ([R Core Team, 2020]) and Microsoft excel. In general, the values reflecting the bacterial concentration (CFU/ml) were transformed into a logarithmic scale. In the growth and viability assay, the mean numbers of the bacterial concentrations from the triplicates were plotted against time and standard deviations shown as error bars. To investigate differences in bacterial concentration between treatment groups in the in vivo assay, multiple group comparisons were performed using ANOVA and P < 0.05 considered significant. The data was visualized in a standard box plot.

S. aureus USA300 = assay: Induced tolerance assay (23 days); settings: for MIC: Staphylococcus aureus
MRSA strain = system: MRSA strain; set-up: method as in Nehme et al., 2018; settings: broth dilution method, ref Nehme et al., 2018; cited from earlier work
E. coli strains = system: E. coli strains; set-up: method as in Nehme et al., 2018; settings: broth dilution method, ref Nehme et al., 2018; cited from earlier work

## Nc1ccc2cc3ccccc3cc2c1 [2-AA, 2-Aminoanthracene, reference compound]
[1]; TA100, + S9, 0.6 µg/well
  Mean number of reverse mutated colonies: 240.0 ± 49.15
[2]; TA1535, + S9, 0.6 µg/well
  Mean number of reverse mutated colonies: 34.00 ± 5.20
[3]; TA98, + S9, 0.6 µg/well
  Mean number of reverse mutated colonies: 332.0 ± 36.66
[4]
  Mean number of reverse mutated colonies: 161.33 ± 18.90
[5]; TA1537, + S9, 0.6 µg/well
  Mean number of reverse mutated colonies: 60.00 ± 5.00

## O=[N+]([O-])c1ccc2c(c1)Cc1ccccc1-2 [2-NF, 2-Nitrofluorene, reference compound]
[3]; TA98, −S9, 2 µg/well
  Mean number of reverse mutated colonies: 268.00 ± 28.84

## CC(=O)O[C@H]1C[C@@]2(C)[C@@H](C[C@@H](O)[C@H]3[C@@]4(C)CC[C@@H](O)[C@@H](C)[C@@H]4CC[C@@]32C)/C1=C(\CCC=C(C)C)C(=O)O [Fusidic acid, reference compound]
[6]
  MIC: 0.03 µg/mL (≈ 0.0581 µM)
[7]
  MIC values (highly elevated): ≥ 512 µg/mL
Plasma proteins; ref Zeitlinger et al., 2011
  PPB (plasma protein binding): approximately 98%
MRSA strain 43484
  Reduction of bacterial counts compared with the vehicle: 1.5 log10 CFU
S. aureus USA300; USA300, 24 h, read-out: MIC Day 1
  MIC: 0.03 µg/mL (≈ 0.0581 µM)
S. aureus USA300; USA300, 552 h, read-out: MIC Day 23
  MIC: 7 µg/mL (≈ 13.5 µM)
S. aureus USA300; tolerance assay, during the 23 days
  Increase in MIC: 233 fold

## COc1ccc2nc3cc(Cl)ccc3c(NCCCNCCCl)c2c1 [ICR 191, Acridine Mutagen (ICR 191), reference compound]
[5]; TA1537, −S9, 0.2 µg/well
  Mean number of reverse mutated colonies: 54.67 ± 16.26

## CN(C)CCCN1c2ccccc2Sc2ccccc21 [Promazine]
MRSA strain
  MIC: 128 µg/mL (≈ 450 µM)
E. coli strains
  MIC: 128 µg/mL (≈ 450 µM)

## [N-]=[N+]=[N-].[Na+] [SA, Sodium azide, reference compound]
[1]; TA100, −S9, 0.24 µg/well
  Mean number of reverse mutated colonies: 176.0 ± 46.13
[2]; TA1535, −S9, 0.24 µg/well
  Mean number of reverse mutated colonies: 111.0 ± 9.54

## CO/N=C(\C(=O)N[C@@H]1C(=O)N2C(C(=O)O)=C(CSc3nc(=O)c(=O)[nH]n3C)CS[C@H]12)c1csc(N)n1 [ceftriaxone]
Plasma proteins; ref Dutta et al., 2001
  PPB (plasma protein binding): 90–95%
